{"source": "patent US20230167437A1", "about": "“COMPOSITIONS FOR TREATING CANCER WITH KRAS MUTATIONS AND USES THEREOF” (Aadigen, LLC, priority 2020, published 2023)", "assay_type_in_all_cases": "cell-based, human", "key": {"[1]": {"test_system": "phospho-p44/42 MAPK (Erk1/2) (Thr202/Tyr204)", "experiment": "Western blot of KRAS downstream signaling 48 h post transfection", "settings": "PANC-1 cells", "description": "(§1) In order to verify the specific effect of your lead sgRNA targeting G12V and G12D KRAS mutation, gRNA35A5 G12D and gRNA35T3 G12V on KRAS signal transduction pathway in PANC-1 and SW403 cells, we measured the levels of downstream signaling proteins that are activated by KRAS. We specifically looked for changes in key signaling pathways, such as mitogen-activated protein kinase (MAPK) or PI3K/Akt, which are known to be the major effector pathways of KRAS activation. Cas9 mRNA (0.2 μg) and gRNA (0.2 μg or 0.5 μg) were associated with ADGN peptide at molar ratio 20/1 (peptide/nucleic acid). PANC1 and SW403 cells were cultured in 48 well plate format and treated with free mRNACas9-gRNA, or ADGN/mRNACas9:gRNA complex. Levels of Erk and Akt phosphorylation were measured 48 h post transfection by western blot using phospho-Akt (Ser 473) (CST, #9271, RRID:AB_329825) and phospho-p44/42 MAPK (Erk1/2) (Thr202/Tyr204) (CST, #4370, RRID:AB_2315112)."}, "[2]": {"test_system": "phospho-Akt (Ser 473)", "experiment": "Western blot of KRAS downstream signaling 48 h post transfection", "settings": "PANC-1 cells", "description": "as §1"}, "[3]": {"test_system": "PANC1, PK1, LS513 and PK-45H cells", "experiment": "Cell proliferation over 5 days (CellTiter Glow)", "description": "(§2) Transfection protocol. The following protocols are reported for 24/48/96 well plate format transfection. Cells should be trypsinized and seeded a day prior transfection Cells were cultured in Dulbecco's Modified Eagle's Medium (DMEM), supplemented with 2 mM glutamine, 1% antibiotics (streptomycin 10,000 μg/mL, penicillin, 10,000 IU/mL) and 10% (w/v) foetal calf serum (FCS), at 37° C. in a humidified atmosphere containing 5% CO2. 96 well plates seeded with 50,000 cells, the day prior transfection, grown to 60-80% confluence and set up to be at around 70% confluence at the day of transfection. Before transfection, cells are washed twice with DMEM (without FBS and pen/strep) (100 μl/well). Cells were then overlaid with 25 μl of complex solution, mixed gently and incubated for 10 min at 37° C.+5% CO2. 50 μl of fresh DMEM (without FBS and Antibiotics) was added and cells were incubated for 2 h at 37° C.+5% CO2 (time of exposure can be adjusted based on sensitivity of the cells). 250 μL of DMEM (containing 10% FCS and 1% antibiotics) were then added without removing the overlay of ADGN peptide/mRNA complexes. Cells were returned to the incubator (37° C., 5% CO2) and analyzed 48 hours to 72 hours post transfection.\n(§3) Nine different gRNAs targeting KRAS 35G>A mutant G12D (gRNA35A1, gRNA35A2, gRNA35A3, gRNA35A4, gRNA35A5, gRNA35A6; gRNA35A7, gRNA35A8, gRNA35A9) were evaluated on LS513, Panc1, PK-45H, and PK1 cancer cells harboring G12D KRAS mutation. Cas9 mRNA (0.1 μg) and gRNA (0.2 μg) were associated with ADGN-peptide at molar ratio 20/1 (peptide/nucleic acid). LS513, Panc1, PK-45H, PK1, HS-68 and HT-29 cells were cultured in 48 well plate format and treated with free mRNACas9-gRNA, or ADGN/mRNACas9:gRNA complex. Indel frequencies at the endogenous target sequences was evaluated 72 hours after transfection by either T7E1 method or deep sequencing. Cell proliferation was analyzed over a period of 5 days using CellTiter Glow kits on GlowMax (Promega)."}, "[4]": {"test_system": "KRAS 35G>A mutant G12D", "experiment": "Indel frequencies at the endogenous target sequences (T7E1 / deep sequencing) after ADGN/Cas9 mRNA/gRNA transfection", "settings": "for indel frequencies: deep sequencing, 72 hours after transfection, Cas9 mRNA 0.1 μg, gRNA 0.2 μg", "description": "Complex formation with mRNA:gRNA: ADGN peptide/mRNA/gRNA particles were prepared at a 20:1:1 molar ratio. ADGN/Cas9mRNA/sgRNA complexes were prepared at a 20/1/1 molar ratio with 0.5 μg mRNA: 1.5 μg sgRNA and 5% Glucose or DMEM (example for 96 well plates). […] Premixed Cas9 mRNA/gRNA were prepared in sterile water at room temperature in a glass vial (1-4 ml). ADGN-peptide solution was added dropwise (1 drop/sec) under magnetic agitation at 400 rpm to obtain a 1:2 ratio, and incubated for 30 min at room temperature or 37° C. Just before transfection, 150 μl Glucose or DMEM was added and the solution was mixed under magnetic agitation at 400 rpm for 1 minute. Then the solution was incubated for 5 min at 37° C. Then the complexes was ready for cell transfection or IV administration. Prior to IV administration, complexes were diluted in sucrose 5% solution.\nas §2, §3\n(§4) In order to confirm the specificity of sgRNAs targeting G12V, G12C or G12D KRAS mutation, gRNA35T3 targeting G12V, gRNA34T6 targeting G12C, and gRNA35A5 targeting G12D were evaluated on a large panel of cancer cells harboring different KRAS mutations including SW403, SW480, PANC1, PK-45H, PK-1, MIA-PACA, H23, H358, HT-29, HS-68 and LS513. Cas9 mRNA (0.2 μg) and gRNA (0.4 μg) were associated with ADGN peptide at molar ratio 20/1 (peptide/nucleic acid). Cells were cultured in 48 well plate format and treated with free mRNACas9-gRNA, or ADGN/mRNACas9:gRNA complex. Indel frequencies at the endogenous target sequences was evaluated 72 hours after transfection by either T7E1 method and cell proliferation was analyzed over a period of 5 days using CellTiter Glow kits on GlowMax (Promega)."}, "[5]": {"test_system": "G12V, G12D, G12C KRAS mutant cells and WT KRAS cells", "experiment": "Specificity of lead sgRNAs on a large panel of cancer cells harboring different KRAS mutations (indel, proliferation)", "settings": "Cas9 mRNA 0.2 μg, gRNA 0.4 μg", "description": "as §4"}}, "note": "Values joined by “and” are separate entries in the source; they are usually repeats but may differ in a detail not shown here. Equal values may be shown once."}
{"sequence": "AGT TGG AGC TGA TGG CGT (guide AGTTGGAGCTGATGGCGT; chemistry not given here) [gRNA35A5, sgRNA target KRAS G12D mutation (35G>A); PAM AGG]", "values": [{"measurement": "level of P-Erk reduced by", "setting": "[1]", "value": 15, "unit": "%"}, {"measurement": "level of p-AKT", "setting": "[2]", "value": "significantly reduced"}, {"measurement": "fold more efficient than gRNA35A2 (cell proliferation)", "setting": "[3]", "value": 2, "unit": "fold"}, {"measurement": "fold more efficient than gRNA35A6 (cell proliferation)", "setting": "[3]", "value": 3, "unit": "fold"}, {"measurement": "inhibition of proliferation or survival (FIG. 2B)", "setting": "[3]; PANC1, PK1, LS513, PK-45H vs HT29 or HS-68 cells harboring KRAS WT", "value": "specifically inhibit proliferation or survival of PANC1, PK1, LS513 and PK-45H cells"}, {"measurement": "cell proliferation blocked", "setting": "[3]; PANC1, PK1, LS513 and PK-45H cells, 5 days", "value": 80, "unit": "%"}, {"measurement": "disruption of G12D mutant KRAS (FIG. 2A)", "setting": "[4]; G12D cancer cells vs wild type KRAS cells (HT29 or HS-68)", "value": "induced efficient disruption of G12D mutant KRAS"}, {"measurement": "indel frequency", "setting": "[4]; KRAS G12D mutated cancer cells", "value": "> 70", "unit": "%"}, {"measurement": "indel frequencies", "setting": "[4]; LS513 cells", "value": "35 ± 4", "unit": "%"}, {"measurement": "indel frequencies", "setting": "[4]; PANC1 cells", "value": "67% and 67 ± 5%"}, {"measurement": "indel frequency", "setting": "[4]; PANC-1, PK-1, and PK-45H cells, T7E1, 72 hours, Cas9 mRNA 0.2 μg, gRNA 0.4 μg", "value": "> 75", "unit": "%"}, {"measurement": "indel frequencies", "setting": "[4]; PK1 cells", "value": "78% and 78 ± 8%"}, {"measurement": "indel frequencies", "setting": "[4]; PK-45H cells", "value": "75% and 75 ± 7%"}, {"measurement": "effect on non-targeted KRAS mutant cells and WT KRAS cells (FIGS. 4A-4B)", "setting": "[5]", "value": "does not alter G12V and G12C KRAS mutant cells or WT KRAS cells"}]}
